The text below walks through data of patent US20220096484A1, “METHODS AND COMPOSITIONS FOR TREATING CANCER BY TARGETING FATP2 AND MYELOID DERIVED SUPPRESSOR CELLS” (The Wistar Institute of Anatomy and Biology, priority 2019, published 2022).

One assay deals with EL-4 tumor cells. The assay can be described thus: MTT assay after three-day incubation of tumor cells with lipofermata. The class given is cell-based. The note with it: EL-4 cells, range of concentrations corresponding to the dose used in vivo (0.2 mg/ml). The method, then: (§1) FIGS. 13A-FIG. 13E show the effect of lipofermata treatment on tumor-bearing mice. FIG. 13A, MTT assay after three-day incubation of tumor cells with indicated concentration of lipofermata. FIG. 13B, Percentage and absolute number of tumor-associated antigen (E7-derived peptide)-specific CD8^+ T cells in draining lymph nodes of mice bearing TC-1 tumor and treated with lipofermata (n=3). FIG. 13C, Growth of TC-1 tumors in mice treated with CTLA4 antibody and lipofermata (n=5). FIG. 13D, CD8^+ T cell infiltration of TC-1 tumors in mice treated with CTLA4 antibody and lipofermata. FIG. 13E, Growth of TC-1 tumors in mice treated with PD1 antibody and lipofermata (n=5). Data are mean±s.d. *P<0.05, **P<0.01, ***P<0.001, ****P<0.0001, two-sided Student's t-test (FIG. 13B) or two-way ANOVA test with correction for repeated measurements (FIG. 13E).
(§2) Tumor cell lines: EL4 (lymphoma), LLC (Lewis Lung Carcinoma), CT26 (colon carcinoma), TC-1 (HPV16 E6/E7 expressing tumor cell line) were obtained from ATCC and F244 (sarcoma) was kindly provided by Dr. R. Schreiber (Washington University, St. Lois, Mo.). All cells were maintained in DMEM medium supplemented with 10% fetal bovine serum (FBS, Sigma-Aldrich, St. Louis, Mo.) at 37° C., 5% CO2. Tumor cells were injected subcutaneously (s.c.) at 5×10^5 cells per mouse. […]
A general note: Tetrazolium assays rely on reduction of a dye to a coloured formazan, in cell work by metabolically active cells.

A further assay concerns LLC tumor cells. The assay is described as above. In kind it is cell-based. As to conditions: range of concentrations corresponding to the dose used in vivo (0.2 mg/ml). The method, then:
as §1, §2

The subject of another assay is tumors in C57BL/6 mice. The assay can be described thus: Growth of tumors in C57BL/6 mice treated with lipofermata (four tumor models). In kind it is in vivo, mouse. As to conditions: four tested tumor models, lipofermata 2 mg/kg twice per day s.c., started 8-10 days after tumor injection. The method, then: FIG. 4A-FIG. 4E, Treatments with lipofermata (2 mg kg^−1 twice per day subcutaneously) started 8-10 days after tumor injection. Anti-CTLA4 antibody (200 μg per mouse, intraperitoneally) was administrated at days 7 and 11 after tumor injection, and anti-CSF1R antibody ([…] per mouse, intraperitoneally) was administered every other day, starting the day after tumor injection. FIG. 4A, Growth of indicated tumors in C57BL/6 mice treated with lipofermata. Representative of two independent experiments (n=4-5 mice per group). FIG. 4B, Growth of LLC tumors in NOD-SCID mice treated with lipofermata (n=5). FIG. 4C, Growth of LLC tumors in mice depleted of CD8 T cells and treated with lipofermata (n=5). FIG. 4D, Growth of LLC tumors in mice treated with anti-CTLA4 antibody and lipofermata (n=5). FIG. 4E, Growth of LLC tumors in mice treated with CSF1R inhibitor and lipofermata (n=5). Data are mean±se.m. *P<0.05, **P<0.01, ***P<0.001, ****P<0.0001 (differences from untreated […] and between treated groups), two-way ANOVA with corrections for multiple comparison. NS, not significant. […]
(§3) Statistical analysis was performed using unpaired two-tailed Student's t-test with significance determined at 0.05. […] Tumor growth was evaluated using two-way Anova test with Bonferroni correction for multiple comparisons.

In the next assay the test system is LLC tumors. In words: Growth of LLC tumors in mice (lipofermata alone, CD8 T cell depletion, combination with antibodies). In kind it is in vivo, mouse. The method, then: (§4) FIG. 4A-FIG. 4E, Treatments with lipofermata (2 mg kg^−1 twice per day subcutaneously) started 8-10 days after tumor injection. Anti-CTLA4 antibody (200 μg per mouse, intraperitoneally) was administrated at days 7 and 11 after tumor injection, and anti-CSF1R antibody ([…] per mouse, intraperitoneally) was administered every other day, starting the day after tumor injection. FIG. 4A, Growth of indicated tumors in C57BL/6 mice treated with lipofermata. Representative of two independent experiments (n=4-5 mice per group). FIG. 4B, Growth of LLC tumors in NOD-SCID mice treated with lipofermata (n=5). FIG. 4C, Growth of LLC tumors in mice depleted of CD8 T cells and treated with lipofermata (n=5). FIG. 4D, Growth of LLC tumors in mice treated with anti-CTLA4 antibody and lipofermata (n=5). FIG. 4E, Growth of LLC tumors in mice treated with CSF1R inhibitor and lipofermata (n=5). Data are mean±se.m. *P<0.05, **P<0.01, ***P<0.001, ****P<0.0001 (differences from untreated […] and between treated groups), two-way ANOVA with corrections for multiple comparison. NS, not significant.
5×10^5 tumor cells were injected s.c. into mice, which formed tumors with a 1.5-cm diameter within 2-3 weeks of injection. Lipofermata was administrated s.c. at dose of 2 mg/kg twice per day. As a control, mice were treated with vehicle alone (DMSO+30% v/v Kolliphor). Treatments with lipofermata started 8-10 days after tumors injections. CSF1R antibody (BioXcell, 300 μg/mouse) was administered every other day starting next day after tumor injection and continued until the mice were sacrificed. PD-1 antibody (clone RMP1-14, BioXcell, 200 μg/mouse) was administered twice a week started 10-12 days after tumor injection. CTLA4-IgG2a (BioXcell, 200 μg/mouse) was administered at day 7 and day 11.
as §3

Assay [1] deals with LLC tumors in NOD-SCID mice. The assay can be described thus: Growth of LLC tumors in NOD-SCID mice treated with lipofermata. The class given is in vivo, mouse. The note with it: lipofermata 2 mg/kg twice per day s.c. How it is done:
as §4
5×10^5 tumor cells were injected s.c. into mice, which formed tumors with a 1.5-cm diameter within 2-3 weeks of injection. Lipofermata was administrated s.c. at dose of 2 mg/kg twice per day. As a control, mice were treated with vehicle alone (DMSO+30% v/v Kolliphor). […]

Assay [2] concerns tumor-associated antigen (E7-derived peptide)-specific CD8+ T cells. In words: Antigen specific CD8 T cells in draining lymph nodes of TC-1 tumor-bearing mice (MHC tetramer flow cytometry). The note with it: TC-1 model; lipofermata treatment. The class given is in vivo, mouse. The method, then: as §1, with “Data are mean±s.d. *P<0.05, **P<0.01, ***P<0.001, ****P<0.0001, two-sided Student's t-test (FIG. 13B) or two-way ANOVA test with correction for repeated measurements (FIG. 13E).” left out
Lymph nodes (LNs) were obtained from TB mice and digested for 30 min at 37° C. with collagenase A (0.5 mg/ml; Sigma Aldrich), Dnase I (0.2 mg/ml, Roche), diluted in HBSS with Ca^2+/Mg^2+ and 20 mM EDTA (Invitrogen) was added 5 min at room temperature to stop the reaction. CD8^+ T cells were isolated from LNs of TB mice using EasySep Mouse CD8+ T Cell Enrichment Kit (STEMCELL) and stimulated with anti CD3 and anti CD28 antibodies (BD Biosciences) for 24 h and IFNγ was analyzed by ELISpot (Mabtech), accordingly to manufacturer's instructions. T cell proliferation was evaluated by flow cytometry using CSFE (BioLegend). […]
A general note: A flow cytometer gives signals particle by particle.

Each structure is given as a SMILES string.

Take `O=C1Nc2ccc(Br)cc2C12NN=C(c1ccccc1)S2` (stereo not drawn) [lipofermata, 5′-bromo-5-phenyl-spiro[3H-1,3,4-thiadiazole-2,3′-indoline]-2′-one]: the “proliferation of tumor cells in vitro (MTT)” value with EL-4 tumor cells and with LLC tumor cells was “did not affect proliferation” each time. The tumor growth result with tumors in C57BL/6 mice is reported as “significant delay of tumor growth”. For the same compound, the “antitumor effect (LLC tumor growth)” value with LLC tumors (LLC bearing mice, lipofermata 2 mg/kg twice per day s.c., anti-CTLA4 200 μg/mouse days 7 and 11, CSF1R antibody 300 μg/mouse every other day) was “had an antitumor effect”. Further, the “blocking of tumor progression” value in the assay on LLC tumors (LLC bearing mice, single agents) was “neither blocked tumor progression”. Also, the “tumor growth effect after depletion of CD8+ T cells” value in the assay with LLC tumors (LLC tumors, immune competent mice depleted of CD8 T cells, lipofermata 2 mg/kg twice per day s.c.) is given as “abrogated the effect of lipofermata”. Further, in assay [1], the “tumor growth delay effect in immune deficient mice” value was “this effect was absent”. For the same compound, in assay [2], the “absolute numbers of antigen specific T cells in draining lymph nodes” value is reported as “increased”. For the same compound, in assay [2], the “percentage of antigen specific T cells in draining lymph nodes” value is “increased”.
